# Data: patent US20220378707A1, “1-(((2S,3S,4S)-3-ETHYL-4-FLUORO-5-OXOPYRROLIDIN-2-YL)METHOXY)-7-METHOXYISOQUINOLINE-6-CARBOXAMIDE COMBINATIONS AND ORAL DOSAGE FORMS” (Pfizer Inc., priority 2019, published 2022)
# “Also recorded” adds a separate entry of the source.
# System: bronchial epithelial cells and HDFn+(TNFα and IL-4)
# Assay: BioMAP BF4T system
# Type: cell-based, human
# Conditions: Th2 airway inflammation; tofacitinib 37-1000 nM
# Text: The BioMAP systems consist of human primary cell-based systems designed to model different aspects of the human body in an in vitro format. The 12 systems tested characterized the test compounds across a broad set of systems modeling various human disease states. BioMAP systems were constructed with one or more primary cell types from healthy human donors, with stimuli (such as cytokines or growth factors) added to capture relevant signaling networks that naturally occur in human tissue or pathological conditions. Vascular biology was modeled in both a Th1 (3C system) and a Th2 (4H system) inflammatory environment, as well as in a Th1 inflammatory state specific to arterial smooth muscle cells (CASM3C system). […]
# Systems were derived from either single cell types or co-culture systems. […] Test agents were prepared in DMSO (final concentration <0.1%) and were added 1 hour before stimulation, and remained in culture for 24 hours or as otherwise indicated (48-hrs, MyoF system; 72-hrs, BT system (soluble readouts); 168-hrs, BT system (secreted IgG)). […] Soluble factors from supernatants were quantified using either HTRF® detection, bead-based multiplex immunoassay or capture ELISA. Overt adverse effects of test agents on cell proliferation and viability (cytotoxicity) were detected by sulforhodamine B (SRB) staining, for adherent cells, and alamarBlue® reduction for cells in suspension.
smiles,measurement,value
"C[C@@H]1CCN(C(=O)CC#N)C[C@@H]1N(C)c1ncnc2[nH]ccc12 [tofacitinib, 3-((3R,4R)-4-Methyl-3-(methyl(7H-pyrrolo[2,3-d]pyrimidin-4-yl)amino)piperidin-1-yl)-3-oxopropanenitrile]",Increased biomarker readouts in the BF4T system,MMP9
same,Inhibition of biomarker readouts in the BF4T system,"active over all tested concentrations; also recorded: Eot3, and VCAM-1"
